Test system: rats
Test: Forced swim test
Assay type: in vivo, rat
Settings: 0.1 mg/kg i.p., against vehicle-treated controls, 5-min FST session
Description: Behavioral testing was applied to a cohort of 12 rats. Following 7 days of daily i.p. treatment with i) vehicle (10% DMSO, 10% Tween 80, 80% saline; 2 mL/kg); or solubilized ii) the compound of Example 2 (0.025 mg/kg) or iii) the compound of Example 2 (0.1 mg/kg), rats were exposed to the modified forced swim test (FST). Briefly, FST exposure (15 min exposure, 25° C. tap water, 30 cm water depth) was performed 18-24 h after the previous i.p. treatment, after which rats were returned to their home cages to dry for approximately 2-3 h, then given daily i.p. treatment as before. FST testing was performed one day later (5 min test, 25° C. tap water, 30 cm water depth) with behaviors digitally recorded for subsequent analysis of immobility by a trained reviewer, blinded to treatment groups. Rats were returned to home cages and monitored without treatment for 72 h. […] Animals were then evaluated for locomotor activity in an open field (60 cm square) using automated tracking software (MedAssociates).
Rats were exposed to a 15 min session of forced swimming in 25° C. water (20 cm diameter cylinder, 30 cm water depth). […] After 1 day, rats were tested for immobility time during 5-min FST sessions which were videotaped and scored by a trained observer blinded to treatment groups.

Compound: CN(Cc1ccc(/C=C/C(=O)Nc2ccccc2N)cc1)CC12CC3CC(CC(C3)C1)C2 [Example 2, (E)-3-(4-((((3r,5r,7r)-adamantan-1-ylmethyl)(methyl)amino)methyl)phenyl)-N-(2-aminophenyl)acrylamide]
- decrease in FST immobility scores: 17%

Source: patent US20170349540A1, “HISTONE DEACETYLASE INHIBITORS” (The General Hospital Corporation, priority 2014, published 2017)
